# Experimental data published in patent publication US4087432A, “1H-imidazo(4,5-b)pyridine compounds” (Eli Lilly and Company, priority 1975, dated 1978).
# How the values were obtained:
# Format in all cases: in vivo
# Conditions in all cases: alone
# Sorghum = experiment: General herbicidal effect alone/in combination, sorghum; set-up: key: 0-10 scale: 0 = no injury, 10 = death
# Protocol: (§1) Various of the compounds to be employed as active agent in accordance with the present invention were evaluated for preemergent application to various species of plants. In this evaluation, a soil was prepared consisting of one part masonry sand and one part shredded top soil blended together in a cement mixer. One gallon of this soil was placed in a 25 × 35 cm. galvanized flat and was patted down with a bench brush until level. A three-row marker was used to make 21/2 cm. deep furrows in approximately two-fifths of the flat. Crop seeds consisting of four kernels of corn, five cotton seeds and five soybean seeds were placed in these furrows. A four-row template was then placed on the remaining soil and the indicated approximate numbers of each of the following seeds were planted, one species to each section: foxtail (millet), 80-100 seeds; velvetleaf (40-50 seeds); rough pigweed (150-250 seeds); and large crabgrass (100-150 seeds).
# (§2) Sufficient soil was added to cover the entire flat. Thus, the weed seeds were covered to a depth of about 6 mm. and the crop seeds were covered to a depth of about 3 cm.
# (§3) In assaying the effect of the composition as preemergent herbicides, a flat prepared as above, taken either on the day of planting or on the next day, was placed in a chamber equipped with a turntable and an air exhaust. The herbicidal composition, either a spray-type emulsion or a wettable powder, was applied to the flat with a modified DeVilbiss atomizer hooked to an air source. Twelve and one-half milliliters of the composition under test were applied to each flat either on the day of planting or the succeeding day. Injury ratings and observations as to type of injury were made eleven to twelve days after treatment. The injury rating scale used was as follows:
# (§4) 4--death When more than one determination was carried out at a given rate, an average value was calculated for the injury rating. Each compound evaluated was formulated as a spray by one of the following procedures. In one method the particular compound was wetted by grinding in a mortar with one part of polyoxyethylene sorbitan monolaurate. Five hundred parts of water were added slowly to the resultant creamy paste to give an aqueous dispersion with a surfactant concentration of 0.2 percent. This dispersion was entirely satisfactory for spray application. In a second procedure the compound was dissolved in one volume of acetone, and the acetone solution was diluted with nineteen volumes of water containing 0.1 percent of polyoxyethylene sorbitan monolaurate.
# (§5) 6-Chloro-1-hydroxy-2-(trifluoromethyl)-1H-imidazo(4,5-b)pyridine was evaluated in combination with 2-chloro-4-ethylamino-6-isopropylamino-s-triazine and separately in combination with 2-chloro-2',6'-diethyl-N-(methoxymethyl)acetanilide for the control of plants. The evaluations were conducted as described in Examples 49-52, except that the rates of compound differed and the species were different. General herbicidal effect was rated on a scale of 0-10, with 0 = no injury and 10 = death. Observations were also made for the following other specific phytotoxic effects.
# Jimsonweed = experiment: General herbicidal effect alone/in combination, jimsonweed; set-up: key: 0-10 scale: 0 = no injury, 10 = death
# Protocol: as §1, §2, §3, §4, §5
# Foxtail Millet = experiment: General herbicidal effect alone/in combination, foxtail millet; set-up: key: 0-10 scale: 0 = no injury, 10 = death
# Protocol: as §1, §2, §3, §4, §5
# Large Crabgrass = experiment: General herbicidal effect alone/in combination, large crabgrass; set-up: key: 0-10 scale: 0 = no injury, 10 = death
# Protocol: as §1, §2, §3, §4, §5
# Velvet Leaf = experiment: General herbicidal effect alone/in combination, velvetleaf; set-up: key: 0-10 scale: 0 = no injury, 10 = death
# Protocol: as §1, §2, §3, §4, §5
# Johnson Grass = experiment: General herbicidal effect alone/in combination, Johnson grass
# Protocol: as §1, §2, §3, §4, §5
# Corn [1] = experiment: General herbicidal effect alone/in combination, corn (first Corn column); set-up: key: 0-10 scale: 0 = no injury, 10 = death
# Protocol: as §1, §2, §3, §4, §5
# Morning glory = experiment: General herbicidal effect alone/in combination, morning glory; set-up: key: 0-10 scale: 0 = no injury, 10 = death
# Protocol: as §1, §2, §3, §4, §5
# Rice = experiment: General herbicidal effect alone/in combination, rice; set-up: key: 0-10 scale: 0 = no injury, 10 = death
# Protocol: as §1, §2, §3, §4, §5
# Lambs Quarter = experiment: General herbicidal effect alone/in combination, lambsquarter; set-up: key: 0-10 scale: 0 = no injury, 10 = death
# Protocol: as §1, §2, §3, §4, §5
# Ragweed = experiment: General herbicidal effect alone/in combination, ragweed; set-up: key: 0-10 scale: 0 = no injury, 10 = death
# Protocol: as §1, §2, §3, §4, §5
# Corn [2] = experiment: General herbicidal effect alone/in combination, corn (second Corn column); set-up: key: 0-10 scale: 0 = no injury, 10 = death
# Protocol: as §1, §2, §3, §4, §5
# Barnyard Grass = experiment: General herbicidal effect alone/in combination, barnyard grass; set-up: key: 0-10 scale: 0 = no injury, 10 = death
# Protocol: as §1, §2, §3, §4, §5
# Pigweed = experiment: General herbicidal effect alone/in combination, pigweed; set-up: key: 0-10 scale: 0 = no injury, 10 = death
# Protocol: as §1, §2, §3, §4, §5
compound,measurement,setting,value
"CCc1cccc(CC)c1N(COC)C(=O)CCl [C, 2-chloro-2',6'-diethyl-N-(methoxymethyl)acetanilide]","herbicidal effect, Sorghum",Sorghum; 0.5 lbs/A,3SF
same,"herbicidal effect, Sorghum",Sorghum; 1.0 lbs/A,4SF
same,"herbicidal effect, Sorghum",Sorghum; 2.0 lbs/A,8SF
same,"herbicidal effect, Sorghum",Sorghum; 4.0 lbs/A,8SFR
same,"herbicidal effect, Jimsonweed",Jimsonweed; 0.5 lbs/A,0
same,"herbicidal effect, Jimsonweed",Jimsonweed; 1.0 lbs/A,3S
same,"herbicidal effect, Jimsonweed",Jimsonweed; 2.0 lbs/A,4S
same,"herbicidal effect, Jimsonweed",Jimsonweed; 4.0 lbs/A,5S
same,"herbicidal effect, Foxtail Millet",Foxtail Millet; 0.5 lbs/A,9SBR
same,"herbicidal effect, Foxtail Millet",Foxtail Millet; 1.0 lbs/A,9RSB
same,"herbicidal effect, Foxtail Millet",Foxtail Millet; 2.0 lbs/A,9.5RSB
same,"herbicidal effect, Foxtail Millet",Foxtail Millet; 4.0 lbs/A,10D
same,"herbicidal effect, Large Crabgrass",Large Crabgrass; 0.5 lbs/A,8RS
same,"herbicidal effect, Large Crabgrass",Large Crabgrass; 1.0 lbs/A,9RS
same,"herbicidal effect, Large Crabgrass",Large Crabgrass; 2.0 lbs/A,10N
same,"herbicidal effect, Large Crabgrass",Large Crabgrass; 4.0 lbs/A,10N
same,"herbicidal effect, Velvet leaf",Velvet Leaf; 0.5 lbs/A,2S
same,"herbicidal effect, Velvet leaf",Velvet Leaf; 1.0 lbs/A,3S
same,"herbicidal effect, Velvet leaf",Velvet Leaf; 2.0 lbs/A,6S
same,"herbicidal effect, Velvet leaf",Velvet Leaf; 4.0 lbs/A,3S
same,"herbicidal effect, Johnson Grass",Johnson Grass; 0.5 lbs/A,9RS
same,"herbicidal effect, Johnson Grass",Johnson Grass; 1.0 lbs/A,9RS
same,"herbicidal effect, Johnson Grass",Johnson Grass; 2.0 lbs/A,9.5RS
same,"herbicidal effect, Johnson Grass",Johnson Grass; 4.0 lbs/A,10N
same,"herbicidal effect, Corn",Corn [1]; 0.5 lbs/A,0
same,"herbicidal effect, Corn",Corn [1]; 1.0 lbs/A,0
same,"herbicidal effect, Corn",Corn [1]; 2.0 lbs/A,2S
same,"herbicidal effect, Corn",Corn [1]; 4.0 lbs/A,2S
same,"herbicidal effect, Morning glory",Morning glory; 0.5 lbs/A,0
same,"herbicidal effect, Morning glory",Morning glory; 1.0 lbs/A,2S
same,"herbicidal effect, Morning glory",Morning glory; 2.0 lbs/A,2SF
same,"herbicidal effect, Morning glory",Morning glory; 4.0 lbs/A,3SF
same,"herbicidal effect, Rice",Rice; 0.5 lbs/A,0
same,"herbicidal effect, Rice",Rice; 1.0 lbs/A,9RS
same,"herbicidal effect, Rice",Rice; 2.0 lbs/A,10N
same,"herbicidal effect, Rice",Rice; 4.0 lbs/A,10N
same,"herbicidal effect, Lambs Quarter",Lambs Quarter; 1.0 lbs/A,5S
same,"herbicidal effect, Lambs Quarter",Lambs Quarter; 2.0 lbs/A,10N
same,"herbicidal effect, Lambs Quarter",Lambs Quarter; 4.0 lbs/A,10N
same,"herbicidal effect, Ragweed",Ragweed; 0.5 lbs/A,0
same,"herbicidal effect, Ragweed",Ragweed; 1.0 lbs/A,5S
same,"herbicidal effect, Ragweed",Ragweed; 2.0 lbs/A,7S
same,"herbicidal effect, Ragweed",Ragweed; 4.0 lbs/A,8SR
same,"herbicidal effect, Corn",Corn [2]; 0.5 lbs/A,0
same,"herbicidal effect, Corn",Corn [2]; 1.0 lbs/A,0
same,"herbicidal effect, Corn",Corn [2]; 2.0 lbs/A,1SB
same,"herbicidal effect, Corn",Corn [2]; 4.0 lbs/A,2S
same,"herbicidal effect, Barnyard Grass",Barnyard Grass; 0.5 lbs/A,5SR
same,"herbicidal effect, Barnyard Grass",Barnyard Grass; 1.0 lbs/A,8S
same,"herbicidal effect, Barnyard Grass",Barnyard Grass; 2.0 lbs/A,8RSF
same,"herbicidal effect, Barnyard Grass",Barnyard Grass; 4.0 lbs/A,9.5RS
same,"herbicidal effect, Pigweed",Pigweed; 0.5 lbs/A,7S
same,"herbicidal effect, Pigweed",Pigweed; 1.0 lbs/A,8SR
same,"herbicidal effect, Pigweed",Pigweed; 2.0 lbs/A,10N
same,"herbicidal effect, Pigweed",Pigweed; 4.0 lbs/A,10N
